| Structure (SMILES) | melting point |
| --- | --- |
| CCCc1nn(-c2ccc(C(F)(F)F)cn2)cc1CCCOc1cccc(CC(=O)O)c1F | 109 to 110 °C |
| COc1ccc(S(=O)(=O)Nc2cc(C(F)(F)F)ccc2Oc2ccccc2C(=O)O)cc1 | 139 °C |
| Cc1cc(C)cc(OC(=O)C(c2ccccc2)N2CCN(C3CCN(C(=O)c4cc(C(F)(F)F)cc(C(F)(F)F)c4)C(Cc4ccccc4)C3)CC2)c1 (stereo not given) | 88.1 °C |
| CC1=C(C(=O)OCCCN(C)C)C(c2ccccc2)C2=C(COC2=O)N1 (stereo not given) | 112 to 115 °C |
| CCCCCCCC/C(=C\C=C\C(=O)O)c1ccc(OC)cc1 | 109 to 110 °C |
| CCNC(=O)Nc1cc(-c2sc(CC)nc2-c2cccc(C)c2)ccn1 | 160 to 162 °C |
| CCc1noc(-c2ccccc2)c1-c1ccc(S(N)(=O)=O)cc1 | 167 °C |
| Cc1c(-c2ccccc2)oc2c(C(=O)OCCN3CCCCC3)cccc2c1=O | 85 to 86 °C |
| COc1cc(O)c2c(=O)cc(C(=O)Nc3ccc(CC4SC(=O)NC4=O)cc3)oc2c1 (stereo not given) | 255 to 256 °C |
| C=CCCn1cnc2c1c(=O)[nH]c(=O)n2C | 245 to 246 °C |
| COc1ccc(Cn2ccnc2)cc1 | 157 to 159 °C |
| CC(=O)SCCN1C(=O)c2ccccc2C1=O | 112 to 114 °C |
| NC(=O)NN=Cc1ccc(Oc2ccc3c(c2)CCC3)cc1 | 218 to 220 °C |
| Cc1ccc2sc(C(=O)O)cc(=O)c2c1 | 236 to 237 °C |
| CCCCc1nn(-c2ccc(C(F)(F)F)cn2)cc1CCCOc1c(CC(=O)O)cccc1OC | 121 to 122 °C |
| CCCc1nc(C(O)C(C)C)c(C(N)=O)n1Cc1ccc(-c2ccccc2-c2nnn[nH]2)cc1 (stereo not given) | 153 to 157 °C |
| CC1(C(=O)Nc2ccc(Oc3ccc(Cl)cc3)c(C(F)(F)F)c2)CC1 | 115 to 117 °C |
| CC(=O)C(=CNN1C=CC=NC1c1ccncc1)C(C)=O (stereo not given) | 182 to 183 °C |
| CC(C)(C)OC(=O)NCCNC(=O)c1ncsc1-c1cccc(I)c1 | 111 to 112 °C |
| COc1ccc(C2(O)c3c(C)c(NC(=O)CC(C)(C)C)c(C)c(C)c3OC2(C)C)cc1 (stereo not given) | 98 to 99 °C |
| CCOC(=O)c1sc2c(c1C)c(N)c(C(=O)c1ccccc1)n2C(C)=O | 188 °C |

The next lines start with the values.

| melting point | Structure (SMILES) |
| --- | --- |
| 249 to 251 °C | O=C(Nc1ccc(Cl)c(Cl)c1)c1cc(Br)ccc1O |
| 178 to 180 °C | Cc1ccc(S(=O)(=O)OCC2Cc3cccc(-c4c(Cl)cccc4Cl)c3O2)cc1 (stereo not given) |
| 103 to 105 °C | Cn1cccc1C=CC(=O)NCCCCCC(=O)NO |
| 72 to 74 °C | CCCCS(=O)(=O)On1nnc2ccc(Cl)cc21 |
| > 250 °C | CNC(=O)Nc1nc2c(s1)C(C)(C)CC(C)(C)C2 |
| 138 °C | CN(C)C(=O)NC(=CC(=O)Nc1cc(F)c(C#N)cc1F)C(F)(F)F |
| 170 to 172 °C | COc1ccc(COc2cc3c(cc2-c2cc(C=CC(=O)O)ccc2O)C(C)(C)CCC3(C)C)cc1 |
| 54 to 55 °C | O=C1CCC(c2ccc(Cl)c(Cl)c2)O1 (stereo not given) |
| 126 to 128 °C | O=C(NCc1ccc(F)cc1)N1CCC(Oc2ccc(CCNC[C@H](O)COc3ccc(O)cc3)cc2)CC1 |
| 186 to 187 °C | Cc1c(C(O)C(C)(C)C)cc(I)[nH]c1=O (stereo not given) |
| 70 to 73 °C | CCc1nc2c(Cl)cc(F)c([N+](=O)[O-])c2s1 |
| 127 to 129 °C | CC(=O)OC(CF)c1cccnc1S(N)(=O)=O (stereo not given) |
| 215 to 216 °C | Cc1cnc(Nc2nc(-c3ccccc3)nc3ccccc23)s1 |
| 32 to 33 °C | COC(=O)c1ccc(OCCC[Si](C)(C)C)cc1O |
| 123 to 125 °C | O=C(c1cccnc1)N1CCC(c2ccccc2[N+](=O)[O-])=N1 |
| 106 to 107 °C | CCC(=O)N1Cc2ccccc2C2(Cc3ccc(Cl)cc3O2)C1 (stereo not given) |
| 222 to 224 °C | O=C(CO)Nc1nc(-c2ccc(Br)cc2)cs1 |
| 185 to 187 °C | O=C1Nc2cccc(-c3cncnc3)c2C12COc1cc3c(cc12)OCO3 (stereo not given) |
| 88 to 89 °C | Cc1c(Cl)c(Cl)c(Cl)c(CCl)c1Cl |

— a melting point compilation (Tetko et al.; mined from patent text by program, amines drawn as free bases though some values may be those of a salt)
